Source: patent publication US20150266908A1, “FLAME RETARDANT COMPRISING AROMATIC PHOSPHATE ESTER-BASED COMPOUND, AND METHOD FOR PREPARING SAME” (priority 2012, published 2015)

Tested on: CHO cells
Assay: Test on toxicity of DPBAP: chromosomal abnormality in CHO cells
Type: cell-based
Description: A test on the toxicity of the DPBAP in accordance with the method of the present invention was performed (by the Korea Research Institute of Chemical Technology). After treating the DPBAP to CHO cells, chromosomal abnormality was measured. Consequently, the increasing of the chromosomal abnormality was not observed in all of DPBAP treatment groups regardless of application of metabolic activation system. […] However, in the CHO cells, it was known that the polyploid and endoreduplication can be generally observed due to the over-proliferation, or other causes (Scott et al., 1990).

In the case of `CCCCNP(=O)(Oc1ccccc1)Oc1ccccc1` [DPBAP, Diphenylbutylaminophosphate], the “toxicity (overall conclusion)” value (CHO cells chromosomal abnormality test) is reported as “no toxicity were observed”, the “increasing of the chromosomal abnormality” value (CHO cells, all DPBAP treatment groups, regardless of application of metabolic activation system) is reported as “not observed” and the cells dead (CHO cells, highest concentration of the test material) is reported as “about 50%”. The polyploid and endoreduplication (CHO cells, highest-concentration groups, treated during 24 hours) was “minority of polyploid and endoreduplication was observed”.
